Assay results as given in article PMC9848270, “Synthesis and biological assessment of indole derivatives containing penta-heterocycles scaffold as novel anticancer agents towards A549 and K562 cells” (Journal of Enzyme Inhibition and Medicinal Chemistry, 2023).

Key:
[1] = test system: human non-small cell lung cancer cells (A549); test: MTT antiproliferative assay, A549; type: cell-based; details: for inhibition at 10 µM: A549, 10 μM, read-out: Inhibition rate, A549; for IC50: A549, 48 h, MTT assay, 48 h, read-out: In vitro cytotoxicity IC50, A549
Method: (§1) A549, PC-3, HepG2 and K562 cells were purchased from the Kunming cell bank of the Chinese academy of sciences. All cell lines were cultured in DMEM or RPMI 1640 complete medium. Logarithmic growth cells were cultured in 96-well plates at a concentration of 10^4 cells per well and pre-cultured for 24 h before adding test compounds. The MTT test with 5-Fluorouracil and Gefitinib as reference compounds were used to evaluate antiproliferative activity of target compounds in four human cancer line cells. For the estimation of the inhibition concentration (IC50), the Graph Pad Prism (GraphPad Software, San Diego, CA) was used.

[2] = test system: human prostate cancer cells (PC-3); test: MTT antiproliferative assay, PC-3; type: cell-based; details: Homo sapiens; for IC50: 48 h, MTT assay, read-out: In vitro cytotoxicity IC50, PC-3; for inhibition at 10 µM: read-out: Inhibition rate, PC-3
Method: as §1

[3] = test system: human liver cancer cells (HepG2); test: MTT antiproliferative assay, HepG2; type: cell-based; details: for inhibition at 10 µM: read-out: Inhibition rate, HepG2; for IC50: MTT assay, 48 h, read-out: In vitro cytotoxicity IC50, HepG2
Method: as §1

[4] = test system: human chronic myeloid leukaemia cells (K562); test: MTT antiproliferative assay, K562; type: cell-based; details: for inhibition at 10 µM: K562, 10 μM, read-out: Inhibition rate, K562; for IC50: K562, 48 h, MTT assay, 48 h, read-out: In vitro cytotoxicity IC50, K562
Method: as §1

[5] = MTT cytotoxicity, normal cell line HEK293; type: cell-based, human; details: human, HEK293 cells (normal cell line); MTT assay, 48 h; normal cell line; CC50; read-out: In vitro cytotoxicity IC50, HEK293
[6] = test system: normal cell line (HEK293); test: MTT cytotoxicity, normal cell line HEK293; type: cell-based, human; details: Homo sapiens, HEK293; 10 μM; read-out: Inhibition rate, HEK293

SMILES: Nc1ccc(-c2nnc(SCC(=O)Nc3cc(-c4c[nH]c5ccccc45)n[nH]3)n2N)cc1 [Compound 11l, N-(3-(1H-indol-3-yl)-1H-pyrazol-5-yl)-2-((4-amino-5–(4-aminophenyl)-4H-1,2,4-triazol-3-yl)thio)acetamide]
- inhibition at 10 µM [1]: 96.7 ± 0.847%
- IC50 [1]: 1.73 ± 0.3 µM
- IC50 [2]: 2.88 ± 0.1 µM
- inhibition at 10 µM [2]: 71.9 ± 4.55%
- inhibition at 10 µM [3]: 93.5 ± 1.56%
- IC50 [3]: 1.37 ± 0.57 µM
- inhibition at 10 µM [4]: 99 ± 0.2%
- IC50 [4]: 363 ± 100 nM
- IC50 at 48 h [5]: 1.38 ± 1.17 µM
- inhibition at 10 µM [6]: 79.6 ± 2.23%
- melting point: 213 to 215 °C

SMILES: Nn1c(SCC(=O)Nc2cc(-c3c[nH]c4ccccc34)n[nH]2)nnc1-c1ccc(Br)cc1 [Compound 11m, N-(3-(1H-indol-3-yl)-1H-pyrazol-5-yl)-2-((4-amino-5–(4-bromophenyl)-4H-1,2,4-triazol-3-yl)thio)acetamide]
- inhibition at 10 µM [1]: 71.7 ± 5.61%
- IC50 [1]: 5.81 ± 0.69 µM
- IC50 [2]: 21.3 ± 2.75 µM
- inhibition at 10 µM [2]: 32.8 ± 6.5%
- inhibition at 10 µM [3]: 60.9 ± 7.02%
- IC50 [3]: 10.7 ± 5.21 µM
- inhibition at 10 µM [4]: 98.5 ± 0.434%
- IC50 [4]: 2570 ± 430 nM
- IC50 at 48 h [5]: 5.81 ± 0.88 µM
- inhibition at 10 µM [6]: 54.2 ± 5.97%
- melting point: 270 to 272 °C

SMILES: Nn1c(SCC(=O)Nc2cc(-c3c[nH]c4ccccc34)n[nH]2)nnc1-c1c[nH]c2ccccc12 [Compound 11n, N-(3-(1H-indol-3-yl)-1H-pyrazol-5-yl)-2-((4-amino-5-(1H-indol-3-yl)-4H-1,2,4-triazol-3-yl)thio)acetamide]
- inhibition at 10 µM [1]: 31 ± 0.996%
- IC50 [1]: 31.3 ± 3.29 µM
- IC50 [2]: 10.4 ± 0.46 µM
- inhibition at 10 µM [2]: 56.6 ± 12.9%
- inhibition at 10 µM [3]: 80.5 ± 3.62%
- IC50 [3]: 2.76 ± 1.74 µM
- inhibition at 10 µM [4]: 97.1 ± 0.377%
- IC50 [4]: 4380 ± 450 nM
- IC50 at 48 h [5]: 5.02 ± 1.29 µM
- inhibition at 10 µM [6]: 44.7 ± 4.73%
- melting point: 230 to 232 °C

SMILES: Nn1c(SCC(=O)Nc2cc(-c3c[nH]c4ccccc34)n[nH]2)nnc1-c1ccc(F)cc1 [Compound 11p, N-(3-(1H-indol-3-yl)-1H-pyrazol-5-yl)-2-((4-amino-5–(4-fluorophenyl)-4H-1,2,4-triazol-3-yl)thio)acetamide]
- inhibition at 10 µM [1]: 23.9 ± 3.03%
- IC50 [1]: 93.9 ± 7.47 µM
- IC50 [2]: 33.3 ± 5.94 µM
- inhibition at 10 µM [2]: 17.1 ± 1.22%
- inhibition at 10 µM [3]: 22.8 ± 2.22%
- IC50 [3]: 19.3 ± 6.15 µM
- inhibition at 10 µM [4]: 11.7 ± 0.639%
- IC50 [4]: 33200 ± 4950 nM
- IC50 at 48 h [5]: 28.9 ± 0.52 µM
- inhibition at 10 µM [6]: 5.33 ± 14.9%
- melting point: 209 to 212 °C

SMILES: Nn1c(SCC(=O)Nc2cc(-c3c[nH]c4ccccc34)n[nH]2)nnc1-c1ccccc1O [Compound 11q, N-(3-(1H-indol-3-yl)-1H-pyrazol-5-yl)-2-((4-amino-5–(2-hydroxyphenyl)-4H-1,2,4-triazol-3-yl)thio)acetamide]
- inhibition at 10 µM [1]: 89.4 ± 2.21%
- IC50 [1]: 4.14 ± 1.71 µM
- IC50 [2]: 2.89 ± 0.15 µM
- inhibition at 10 µM [2]: 86.3 ± 0.332%
- inhibition at 10 µM [3]: 84.7 ± 11.4%
- IC50 [3]: 8.23 ± 7.58 µM
- inhibition at 10 µM [4]: 99.2 ± 1.2%
- IC50 [4]: 2340 ± 340 nM
- IC50 at 48 h [5]: 2.66 ± 1.29 µM
- inhibition at 10 µM [6]: 99.3 ± 0.02%
- melting point: 263 to 266 °C

SMILES: Nn1c(SCC(=O)Nc2cc(-c3c[nH]c4ccccc34)n[nH]2)nnc1-c1ccc[nH]1 [Compound 11r, N-(3-(1H-indol-3–yl)-1H-pyrazol-5-yl)-2-((4-amino-5-(1H-pyrrol-2-yl)-4H-1,2,4-triazol-3-yl)thio)acetamide]
- inhibition at 10 µM [1]: 94.2 ± 1.81%
- IC50 [1]: 2.72 ± 0.26 µM
- IC50 [2]: 2.73 ± 1.05 µM
- inhibition at 10 µM [2]: 79.4 ± 9.21%
- inhibition at 10 µM [3]: 96.5 ± 1.22%
- IC50 [3]: 1.75 ± 0.07 µM
- inhibition at 10 µM [4]: 95 ± 2.52%
- IC50 [4]: 1840 ± 660 nM
- IC50 at 48 h [5]: 1.53 ± 0.93 µM
- inhibition at 10 µM [6]: 72.3 ± 5.76%
- melting point: 241 to 243 °C
